Laboratory results as given in patent US20260315464A1, “COMPOSITIONS, METHODS, AND SYSTEMS FOR MODULATING SPLICING OF MSH3” (REVIR THERAPEUTICS, INC., priority 2023, published 2026).

Tested on: MSH3
Experiment: QPCR assay for levels of MSH3 upon compound treatment in HEK293T or AD293 cells (fold-change of MSH3 transcript, EC50 of MSH3 downregulation; total MSH3 exons 13/14, exons 20/21; Table 8)
Type: cell-based
Conditions: for mrna remaining at 1 µM / mrna remaining at 10 µM: Homo sapiens, fold-change of the MSH3 transcript, normalized to GAPDH; for mrna remaining at 1 µM: 1 μM compound; for mrna remaining at 10 µM: 10 μM compound; for EC50: EC50 of MSH3 downregulation, XtalPi
Procedure, shortened: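 HEK293T or AD293 cells were treated at 1 μM and […]; RNA-to-cDNA qPCR used TaqMan assays for total MSH3 (exons 13/14, exons 20/21) and poison-exon junctions exon 13/PE14A and exon 20/PE21A. Transcript levels were normalized to GAPDH.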

Row | EC50 [nM] | SMILES | mrna remaining at 1 µM [%] | mrna remaining at 10 µM [%]
1 |  | Cc1nn(C)nc1-c1cnc2c(c1)C(=O)N(c1ccc(N3CCC[C@@H](NC(C)(C)C)C3)nn1)C2 [Compound 616, (R)-6-(6-(3-(tert-butylamino)piperidin-1-yl)pyridazin-3-yl)-3-(2,5-dimethyl-2H-1,2,3-triazol-4-yl)-6,7-dihydro-5H-pyrrolo[3,4-b]pyridin-5-one] | 100 | 67
2 |  | Cn1nc(Cl)c(-c2cnc3c(c2)C(=O)N(c2ccc(N4CCC[C@@H](NC(C)(C)C)C4)nn2)C3)n1 [Compound 617, (R)-6-(6-(3-(tert-butylamino)piperidin-1-yl)pyridazin-3-yl)-3-(5-chloro-2-methyl-2H-1,2,3-triazol-4-yl)-6,7-dihydro-5H-pyrrolo[3,4-b]pyridin-5-one] | 93 | 70
3 |  | CN(C)C1CCN(c2ccc(N3Cc4ncc(-c5nn(C)nc5Cl)cc4C3=O)nn2)CC1 [Compound 618, 3-(5-chloro-2-methyl-2H-1,2,3-triazol-4-yl)-6-(6-(4-(dimethylamino)piperidin-1-yl)pyridazin-3-yl)-6,7-dihydro-5H-pyrrolo[3,4-b]pyridin-5-one] | 83 | 68
4 |  | Cn1nc(Cl)c(-c2cnc3c(c2)C(=O)N(c2ccc(OC4CC(C)(C)NC5(CCC5)C4)nn2)C3)n1 (stereo not drawn) [Compound 619, 3-(5-chloro-2-methyl-2H-1,2,3-triazol-4-yl)-6-(6-((6,6-dimethyl-5-azaspiro[3.5]nonan-8-yl)oxy)pyridazin-3-yl)-6,7-dihydro-5H-pyrrolo[3,4-b]pyridin-5-one] | 80 | 10
5 |  | Cn1nc(Cl)c(-c2cnc3c(c2)C(=O)N(c2ccc(N4CCN5CCC[C@H]5C4)nn2)C3)n1 [Compound 620, (S)-3-(5-chloro-2-methyl-2H-1,2,3-triazol-4-yl)-6-(6-(hexahydropyrrolo[1,2-a]pyrazin-2(1H)-yl)pyridazin-3-yl)-6,7-dihydro-5H-pyrrolo[3,4-b]pyridin-5-one] | 93 | 55
6 | 229 | CN(c1ccc(N2Cc3ncc(-c4nn(C)nc4Cl)cc3C2=O)nn1)C1CC(C)(C)NC2(CCC2)C1 (stereo not drawn) [Compound 621, 3-(5-chloro-2-methyl-2H-1,2,3-triazol-4-yl)-6-(6-((6,6-dimethyl-5-azaspiro[3.5]nonan-8-yl)(methyl)amino)pyridazin-3-yl)-6,7-dihydro-5H-pyrrolo[3,4-b]pyridin-5-one] |  | 
7 |  | Cc1nn(C)cc1-c1cnc2c(n1)C(=O)N(c1ccc(O[C@H]3C[C@]4(C)CC[C@](C)(C3)N4)nn1)C2 [Compound 622, 3-(1,3-dimethyl-1H-pyrazol-4-yl)-6-(6-(((1R,3s,5S)-1,5-dimethyl-8-azabicyclo[3.2.1]octan-3-yl)oxy)pyridazin-3-yl)-6,7-dihydro-5H-pyrrolo[3,4-b]pyrazin-5-one] | 76 | 30
8 | 2990 | Cc1nn(C)nc1-c1cnc2c(n1)C(=O)N(c1ccc(O[C@H]3C[C@]4(C)CC[C@](C)(C3)N4)nn1)C2 [Compound 623, 3-(2,5-dimethyl-2H-1,2,3-triazol-4-yl)-6-(6-(((1R,3s,5S)-1,5-dimethyl-8-azabicyclo[3.2.1]octan-3-yl)oxy)pyridazin-3-yl)-6,7-dihydro-5H-pyrrolo[3,4-b]pyrazin-5-one] | 60 | 13
9 |  | Cc1nn(C)nc1-c1cnc2c(n1)C(=O)N(c1ccc(OC3CC(C)(C)NC(C)(C)C3)nn1)C2 [Compound 624, 3-(2,5-dimethyl-2H-1,2,3-triazol-4-yl)-6-(6-((2,2,6,6-tetramethylpiperidin-4-yl)oxy)pyridazin-3-yl)-6,7-dihydro-5H-pyrrolo[3,4-b]pyrazin-5-one] | 60 | 12
10 |  | CN(c1ccc(N2Cc3ncc(-c4cnn(CC(C)(C)O)c4)nc3C2=O)nn1)[C@H]1C[C@]2(C)CC[C@](C)(C1)N2 [Compound 625, 6-(6-(((1R,3s,5S)-1,5-dimethyl-8-azabicyclo[3.2.1]octan-3-yl)(methyl)amino)pyridazin-3-yl)-3-(1-(2-hydroxy-2-methylpropyl)-1H-pyrazol-4-yl)-6,7-dihydro-5H-pyrrolo[3,4-b]pyrazin-5-one] | 81 | 108
11 |  | CN(c1ccc(N2Cc3ncc(-c4nn(C)nc4Cl)nc3C2=O)nn1)C1CC(C)(C)NC2(CCC2)C1 (stereo not drawn) [Compound 626, 3-(5-chloro-2-methyl-2H-1,2,3-triazol-4-yl)-6-(6-((6,6-dimethyl-5-azaspiro[3.5]nonan-8-yl)(methyl)amino)pyridazin-3-yl)-6,7-dihydro-5H-pyrrolo[3,4-b]pyrazin-5-one] | 98 | 28
12 |  | CN(c1ccc(N2Cc3ncc(-c4nn(C)nc4Cl)nc3C2=O)nn1)[C@H]1C[C@]2(C)CC[C@](C)(C1)N2 [Compound 627, 3-(5-chloro-2-methyl-2H-1,2,3-triazol-4-yl)-6-(6-(((1R,3s,5S)-1,5-dimethyl-8-azabicyclo[3.2.1]octan-3-yl)(methyl)amino)pyridazin-3-yl)-6,7-dihydro-5H-pyrrolo[3,4-b]pyrazin-5-one] | 37 | 11
13 |  | Cn1nc(Cl)c(-c2cnc3c(n2)C(=O)N(c2ccc(OC4CC(C)(C)NC5(CCC5)C4)nn2)C3)n1 (stereo not drawn) [Compound 628, 3-(5-chloro-2-methyl-2H-1,2,3-triazol-4-yl)-6-(6-((6,6-dimethyl-5-azaspiro[3.5]nonan-8-yl)oxy)pyridazin-3-yl)-6,7-dihydro-5H-pyrrolo[3,4-b]pyrazin-5-one] | 101 | 20
14 |  | CC(C)[C@H]1CN(c2ccc(N3Cc4c(F)cc(-c5cnn(C)n5)cc4C3=O)nn2)CCN1 [Compound 629, (S)-4-fluoro-2-(6-(3-isopropylpiperazin-1-yl)pyridazin-3-yl)-6-(2-methyl-2H-1,2,3-triazol-4-yl)isoindolin-1-one] | 74 | 62
15 |  | Cn1ncc(-c2cc(F)c3c(c2)C(=O)N(c2ccc(N4CCN[C@@H](C(C)(C)C)C4)nn2)C3)n1 [Compound 630, (S)-2-(6-(3-(tert-butyl)piperazin-1-yl)pyridazin-3-yl)-4-fluoro-6-(2-methyl-2H-1,2,3-triazol-4-yl)isoindolin-1-one] | 106 | 72
16 |  | Cn1ncc(-c2cc(F)c3c(c2)C(=O)N(c2ccc(O[C@H]4C[C@]5(C)CC[C@](C)(C4)N5)nn2)C3)n1 [Compound 631, 2-(6-(((1R,3s,5S)-1,5-dimethyl-8-azabicyclo[3.2.1]octan-3-yl)oxy)pyridazin-3-yl)-4-fluoro-6-(2-methyl-2H-1,2,3-triazol-4-yl)isoindolin-1-one] | 86 | 69
17 |  | CN(c1ccc(N2Cc3c(F)cc(-c4cnn(CC(C)(C)O)c4)cc3C2=O)nn1)[C@H]1C[C@]2(C)CC[C@](C)(C1)N2 [Compound 632, 2-(6-(((1R,3s,5S)-1,5-dimethyl-8-azabicyclo[3.2.1]octan-3-yl)(methyl)amino)pyridazin-3-yl)-4-fluoro-6-(1-(2-hydroxy-2-methylpropyl)-1H-pyrazol-4-yl)isoindolin-1-one] | 72 | 57
18 |  | CN(c1ccc(N2Cc3c(F)cc(-c4cnn(CC(C)(C)O)n4)cc3C2=O)nn1)C1CC(C)(C)NC(C)(C)C1 [Compound 633, 4-fluoro-6-(2-(2-hydroxy-2-methylpropyl)-2H-1,2,3-triazol-4-yl)-2-(6-(methyl(2,2,6,6-tetramethylpiperidin-4-yl)amino)pyridazin-3-yl)isoindolin-1-one] | 109 | 89
19 |  | CN(c1ccc(N2Cc3c(F)cc(-c4cnn(CC(C)(C)O)n4)cc3C2=O)nn1)[C@H]1C[C@]2(C)CC[C@](C)(C1)N2 [Compound 634, 2-(6-(((1R,3s,5S)-1,5-dimethyl-8-azabicyclo[3.2.1]octan-3-yl)(methyl)amino)pyridazin-3-yl)-4-fluoro-6-(2-(2-hydroxy-2-methylpropyl)-2H-1,2,3-triazol-4-yl)isoindolin-1-one] | 63 | 76
20 |  | CC(C)(O)Cn1ncc(-c2cc(F)c3c(c2)C(=O)N(c2ccc(OC4CC(C)(C)NC(C)(C)C4)nn2)C3)n1 [Compound 635, 4-fluoro-6-(2-(2-hydroxy-2-methylpropyl)-2H-1,2,3-triazol-4-yl)-2-(6-((2,2,6,6-tetramethylpiperidin-4-yl)oxy)pyridazin-3-yl)isoindolin-1-one] | 54 | 117
21 |  | C[C@@H]1CN(c2ccc(N3Cc4c(F)cc(-c5nn(C)nc5Cl)cc4C3=O)nn2)C[C@H](C)N1 [Compound 636, 6-(5-chloro-2-methyl-2H-1,2,3-triazol-4-yl)-2-(6-((3S,5R)-3,5-dimethylpiperazin-1-yl)pyridazin-3-yl)-4-fluoroisoindolin-1-one] | 95 | 41
22 |  | Cn1nc(Cl)c(-c2cc(F)c3c(c2)C(=O)N(c2ccc(N4CCN[C@@H](C(C)(C)C)C4)nn2)C3)n1 [Compound 637, (S)-2-(6-(3-(tert-butyl)piperazin-1-yl)pyridazin-3-yl)-6-(5-chloro-2-methyl-2H-1,2,3-triazol-4-yl)-4-fluoroisoindolin-1-one] | 150 | 31
23 |  | CC(C)[C@@H]1CN(c2ccc(N3Cc4c(F)cc(-c5nn(C)nc5Cl)cc4C3=O)nn2)CCN1 [Compound 638, (R)-6-(5-chloro-2-methyl-2H-1,2,3-triazol-4-yl)-4-fluoro-2-(6-(3-isopropylpiperazin-1-yl)pyridazin-3-yl)isoindolin-1-one] | 112 | 22
24 |  | Cc1nn(C)nc1-c1cc(F)c2c(c1)C(=O)N(c1ccc(N3CCNC(C)CC3)nn1)C2 (stereo not drawn) [Compound 639, 6-(2,5-dimethyl-2H-1,2,3-triazol-4-yl)-4-fluoro-2-(6-(5-methyl-1,4-diazepan-1-yl)pyridazin-3-yl)isoindolin-1-one] | 118 | 55
